Results reported in patent publication US11542304B2, “Multimeric bicyclic peptide ligands” (BicycleTx Limited, priority 2018, dated 2023).

Tests used:
[1] = tested on: MC38 syngeneic tumors; assay: In vivo efficacy in MC38 syngeneic tumors in C57BL/6J B-h4-1BB humanized mice
Procedure: The MC38 murine colon carcinoma cell line was purchased from Shunran Shanghai Biological Technology Co., Ltd. The cells will be maintained in vitro as monolayer culture in Dulbecco's Modified Eagle's medium (DMEM) supplemented with 10% heat inactivated fetal calf serum, 100 U/mL penicillin and 100 μg/mL streptomycin at 37° C. in an atmosphere of 5% CO2. The tumor cells will be routinely subcultured twice weekly by trypsin-EDTA treatment. Cells growing in an exponential growth phase will be harvested and counted for tumor inoculation. 6-8 week old female C57BL/6J B-h4-1BB humanized mice were subcutaneously injected (in the flank) with MC38 tumor cells (5×10^5) with 0.1 mL PBS for tumor development. Tumor-bearing animals were randomly enrolled into six study groups when the mean tumor size reached approximately 113 mm^3 (Study 1) or 107 mm^3 (Study 2). The test and positive control articles were administrated to the tumor-bearing mice according to predetermined regimens as shown below.
Test articles were formulated in aqueous vehicle (25 mM Histidine, 10% sucrose pH=7) and administered intravenously or intraperitoneally. CD137 monoclonal antibody agonist was administered by intraperitoneal injection in 0.9% saline.
Tumor volume was measured three times a week in two dimensions using a caliper, and the volume was expressed in mm3 using the formula: V=0.5a×b2 where a and b were the long and short diameters of the tumor, respectively. Results are represented by mean and the standard deviation (Mean±SD).
In study 2, mice were sacrificed 21 days after treatment initiation and tumors were harvested for T-cell analysis by flow cytometry. Tumor were cut into small pieces and filtered through a 70 micrometer filter. Lymphocytes were isolated using Histopaque 1083 and resuspended in RPMI 1640 supplemented with 10% fetal bovine serum. Lymphocytes were stained with a cell viability dye (Zombie NIR, Biolegend, #423106) and a panel of antibodies including anti-mouse CD45 (Biolegend, #103138), anti-mouse CD3 (Biolegend, #100328), anti-mouse CD4 (Biolegend, #100438), anti-mouse CD8 (Biolegend, #100759). Stained cells were analysed by Attune N×T Flow Cytometer. T-cell results are expressed as % of CD3+ cells among CD45+ cells. CD8+ T-cell results are expressed as % of CD8+ cells among CD45+CD3+ cells. CD4+ T-cell results are expressed as % of CD4+ cells among CD45+CD3+ cells. Results are represented by mean and the standard deviation (Mean±SD) and the individual values.
Statistical analysis: Data was analyzed using 2way ANOVA or ordinary One-way ANOVA with Dunnett's test for multiple comparisons, and P<0.05 was considered to be statistically significant. Both statistical analysis and biological observations are taken into consideration. ***p<0.001, **p<0.01, *p<0.05.

[2] = tested on: Pan T-cells (isolated from human PBMCs); assay: T-cell cytokine release assay; format: cell-based; settings: anti-CD3 stimulated T cells, 48 hours; FIG. 14
Procedure: Healthy human buffy coat was purchased from the Sylvan N. Goldman Oklahoma Blood Institute and shipped fresh. Peripheral blood mononuclear cells (PBMCs) were isolated by Ficoll density gradient centrifugation. Red blood cells were lysed with ACK (Ammonium-Chloride-Potassium) lysis buffer. Pan T-cells were then isolated from total PBMCs using negative magnetic bead selection (Miltenyi MACS human Pan-T cell isolation kit). Pan T-cells were then plated on anti-CD3 coated 96-well plates (0.5 μg/mL) in culture media (RPMI1640 with 10% FBS) plus or minus compounds. Supernatant from cultures was collected after 24 and 48 hours. Cytokine [i.e., interleukin-2 (IL-2), interferon gamma (IFNγ)] release in supernatant was measured by HTRF assay (CisBio) according to the kit's instructions. HTRF assay plates were read on a Clariostar plate reader (BMG Labtech) at 665 nm and 620 nm. Data was analyzed and extrapolated to a standard curve according to the HTRF kit instruction in Prism and Excel. Cytokine release fold change was calculated by dividing the pg/mL of cytokine detected by background cytokine released (CD3 stimulation alone). Data was graphed in Prism as the mean of replicates with standard deviation error bars.

[3] = target: T1, CD137 (Homo sapiens, UniProt Q07011); assay: CD137 reporter cell activity washout assay; format: cell-based; parameters: host or cells: Jurkat cells; settings: 10 nM, exposure 30, 60 or 120 minutes, total 6 hours; FIG. 13
Procedure: Jurkat cells engineered to overexpress CD137 and express a luciferase gene under the NF-κB promoter were purchased from Promega. The reporter cells were incubated with 10 nM of CD137 agonists for the indicated times at 37° C. in RPMI1640 media with 1% FBS. After either 30, 60, or 120 minutes, cells were washed in an excess of culture media and resuspended in 75 μL of fresh media. A no washout condition was also included. All washout conditions were performed in duplicate. Cells then continued to incubate for a total of 6 hours (an additional 5.5, 5, or 4 hours respective to exposure times). After incubation, 75 μL of Bio-Glo reagent (Promega) was added to each well and allowed to equilibrate for 10 minutes at room temperature. Luminescence was read on the Clariostar plate reader (BMG LabTech). Fold induction was calculated by dividing the luminescence signal by background wells (reporter cells with no agonist added). The percent of the maximum fold induction was calculated by dividing the fold induction of the washout time by the fold induction of the no washout condition and multiplying by 100.

[4] = target: T1, CD137; assay: CD137 Promega reporter cell activity assay (NF-κB luciferase in Jurkat cells)

T1 sequence (Q07011 24-255): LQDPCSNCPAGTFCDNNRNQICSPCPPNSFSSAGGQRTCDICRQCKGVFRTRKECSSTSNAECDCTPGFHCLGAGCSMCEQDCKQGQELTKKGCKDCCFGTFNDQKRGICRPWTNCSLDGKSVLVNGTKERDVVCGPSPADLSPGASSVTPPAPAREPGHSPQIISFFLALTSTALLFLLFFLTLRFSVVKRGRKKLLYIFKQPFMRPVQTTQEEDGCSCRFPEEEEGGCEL

Q: `CCCC[C@@H]1NC(=O)[C@H](Cc2ccc(O)cc2)NC(=O)[C@@H]2CCCN2C(=O)[C@H](CC(=O)O)NC(=O)[C@H](C)NC(=O)[C@H](Cc2ccccc2)NC(=O)[C@@H]2CSCCC(=O)N3CN(CN(C3)C(=O)CCSC[C@@H](C(=O)N[C@@H](C)C(N)=O)NC1=O)C(=O)CCSC[C@H](NC(C)=O)C(=O)N[C@@H](CC(C)(C)C)C(=O)N1CCC[C@H]1C(=O)N[C@@H](CCCCNC(=O)CCc1cn(CCOCCOCCOCCOCCOCCOCCOCCOCCOCCOCCOCCOCCOCCOCCOCCOCCOCCOCCOCCOCCOCCOCCOCCNC(=O)CCOCC(COCCC(=O)NCCOCCOCCOCCOCCOCCOCCOCCOCCOCCOCCOCCOCCOCCOCCOCCOCCOCCOCCOCCOCCOCCOCCOCCn3cc(CCC(=O)NCCCC[C@@H]4NC(=O)[C@@H]5CCCN5C(=O)[C@H](CC(C)(C)C)NC(=O)[C@@H](NC(C)=O)CSCCC(=O)N5CN6CN(C5)C(=O)CCSC[C@H](NC(=O)[C@H](Cc5ccc(O)cc5)NC(=O)[C@@H]5CCCN5C(=O)[C@@H](C)NC4=O)C(=O)N[C@@H](Cc4ccccc4)C(=O)N[C@@H](C)C(=O)N[C@@H](CC(=O)O)C(=O)N4CCC[C@H]4C(=O)N[C@@H](Cc4ccc(O)cc4)C(=O)N[C@@H](CCCC)C(=O)N[C@H](C(=O)N[C@@H](C)C(N)=O)CSCCC6=O)nn3)(COCCC(=O)NCCOCCOCCOCCOCCOCCOCCOCCOCCOCCOCCOCCOCCOCCOCCOCCOCCOCCOCCOCCOCCOCCOCCOCCn3cc(CCC(=O)NCCCC[C@@H]4NC(=O)[C@@H]5CCCN5C(=O)[C@H](CC(C)(C)C)NC(=O)[C@@H](NC(C)=O)CSCCC(=O)N5CN6CN(C5)C(=O)CCSC[C@H](NC(=O)[C@H](Cc5ccc(O)cc5)NC(=O)[C@@H]5CCCN5C(=O)[C@@H](C)NC4=O)C(=O)N[C@@H](Cc4ccccc4)C(=O)N[C@@H](C)C(=O)N[C@@H](CC(=O)O)C(=O)N4CCC[C@H]4C(=O)N[C@@H](Cc4ccc(O)cc4)C(=O)N[C@@H](CCCC)C(=O)N[C@H](C(=O)N[C@@H](C)C(N)=O)CSCCC6=O)nn3)COCCC(=O)NCCOCCOCCOCCOCCOCCOCCOCCOCCOCCOCCOCCOCCOCCOCCOCCOCCOCCOCCOCCOCCOCCOCCOCCn3cc(CCC(=O)NCCCC[C@@H]4NC(=O)[C@@H]5CCCN5C(=O)[C@H](CC(C)(C)C)NC(=O)[C@@H](NC(C)=O)CSCCC(=O)N5CN6CN(C5)C(=O)CCSC[C@H](NC(=O)[C@H](Cc5ccc(O)cc5)NC(=O)[C@@H]5CCCN5C(=O)[C@@H](C)NC4=O)C(=O)N[C@@H](Cc4ccccc4)C(=O)N[C@@H](C)C(=O)N[C@@H](CC(=O)O)C(=O)N4CCC[C@H]4C(=O)N[C@@H](Cc4ccc(O)cc4)C(=O)N[C@@H](CCCC)C(=O)N[C@H](C(=O)N[C@@H](C)C(N)=O)CSCCC6=O)nn3)nn1)C(=O)N[C@H](C)C(=O)N1CCC[C@H]1C(=O)N[C@@H](Cc1ccc(O)cc1)C(=O)N2` [BCY8945] was tested. Which “anti-tumour activity (tumor volume), Study 2” value ([1]; 30 mg/kg QD × 20, FIG. 8) did it give?
A: Its value is “elicits anti-tumour activity”.

Q: What about the “T-cell percentage in the tumor tissue (% CD3+ among CD45+)” value ([1]; Study 2, 21 days of treatment, compared to CD137 monoclonal antibody agonist, FIG. 9) of the same molecule?
A: Its value is “elicits a range of increase in T-cell and CD8+ T-cell percentage”.

Q: And the “CD8+ T-cell percentage in the tumor tissue (% CD8+ among CD45+CD3+)” value ([1]; Study 2, 21 days of treatment, compared to CD137 monoclonal antibody agonist, FIG. 10)?
A: Its value is “elicits a range of increase in T-cell and CD8+ T-cell percentage”.

Q: What about the “CD4+ T-cell percentage in the tumor tissue (% CD4+ among CD45+CD3+)” value ([1]; Study 2, 21 days of treatment, compared to CD137 monoclonal antibody agonist, FIG. 11) of the same molecule?
A: Its value is “elicits a range of decease in T-cell percentage”.

Q: And the “pro-inflammatory cytokine (IL-2, IFNγ) secretion by T-cells” value [2]?
A: The value was “secrete pro-inflammatory cytokines”.

Q: What about the “cell activity after washout” value [3] of the same molecule?
A: Its value is “maintains cell activity after washout”.

Q: And the “Average Fold EC50 Improvement relative to BCY7845” value [4]?
A: The value was 0.13.

Q: And the “Average Relative Fold Induction relative to BCY7845” value ([4]; Average fold induction for BCY7845 = 6.3)?
A: The value was 1.23.

Q: What about the “CD137 agonism / activation in reporter cells (in words)” value ([4]; FIGS. 1 to 3 and 15) of the same molecule?
A: Its value is “activates CD137 on the surface of Jurkat reporter cells”.
